The values that follow come from article PMC8122671, “New Succinimides with Potent Anticancer Activity: Synthesis, Activation of Stress Signaling Pathways and Characterization of Apoptosis in Leukemia and Cervical Cancer Cells” (International Journal of Molecular Sciences, 2021).

The nature of data set [1]: Lipophilicity (logkw) by reversed-phase chromatography (RP-HPLC). In kind it is physicochemical. As to conditions: for logkw (Experimental): extrapolated to pure water; for logkw (Table S2): intercept of logk vs methanol fraction, n = 4. The source says: The main goal of the synthetic part was the synthesis of new derivatives of dicarboximides with decreased lipophilicity in comparison to the lead compounds, i.e., Ia–Ie and II. To reduce the lipophilicity of the new dicarboximides, a hydroxyalkyl chain connected with an aliphatic amine was introduced to the imides (Scheme 1). At the same time, the imide scaffold in derivatives from group 2 and 3 was the same as in lead compounds Ia–Ie and II, respectively (Figure 1). The structure of the imide was changed in derivatives 1b–1g. The lipophilicity of new derivatives was calculated using the Osiris Property Explorer program. For some compounds, lipophilicity was determined experimentally by a reversed-phase chromatography (detailed description is given in Materials and Methods and in the Supplementary Data, Table S2). Table 1 summarizes the calculated (clogP) and experimental (logkw) parameters of the lipophilicity of new derivatives.
The reversed-phase high-performance liquid chromatography (RP-HPLC) analysis was performed on a Merck–Hitachi LaChrom Elite System (Merck, Darmstadt, Germany) with diode array detector L-2455, thermostat L-2300, pump L-2130, and autosampler L-2200 and with the Waters XTerra MS RP-18 (3.5 μm, 150 × 4.6 mm) chromatographic column (Waters, Milford, MA, USA) as the stationary phase. The mobile phase consisted of methanol, water, and 0.1% (v/v) formic acid and was degassed by the use of the built-in membrane degasser. The methanol gradient grade for HPLC was purchased from Merck (Merck, Darmstadt, Germany) and formic acid from Polish Reagents (Polish Reagents, Gliwice, Poland); double-distilled water was used. Then, 5 μL of methanolic solutions (0.1%; m/v) of selected samples were applied to the chromatographic column by the use of an autosampler Hitachi L-2200 (LaChrom Elite, Hitachi-Merck, Darmstadt, Germany). The analysis was performed with the flow rate of 0.7 mL min^−1 in isocratic mode using various concentrations of organic modifier (methanol) in binary polar mobile phases; percentages of methanol in water were 45–70% (%, v/v) and changed by 5% per step. Chromatograms were detected at 254 nm and the temperature of the column was 25 °C. All experiments were repeated in triplicate, and the final results were taken to be the arithmetic means. Dead time was measured by the use of uracil (Calbiochem. Merck, Darmstadt, Germany). Statistical and regression analyses were performed using Statistica (ver. 13.3 for Windows). The chromatographic lipophilicity parameters ( logkW ) for selected samples were obtained by the extrapolation of the retention parameter logk to pure water, according to Equation (1):(1) logk=logkw−S·ϕ; where logkW is the value of the retention factor of a substance in pure water, S is the slope of the regression curve, and ϕ is the concentration of the organic modifier. The values of logk were calculated based on the raw HPLC data using the formula (2):(2) logk=logtR−t0/t0; where tR is the retention time and t0 is the dead retention time (determined for uracil).
The chromatographic lipophilicity parameters (logkௐ ) for selected samples were ob‐ tained by the extrapolation of the retention parame te r logk to pure water, according to […]
where logkௐ is the value of the retention factor of a substance in pure water, S is the slope of the regression curve, and φ is the concentration of the organic modifier. The values of logk were ca lcula ted based on the raw HPLC data using the formula: […]
logk ൌ log ሺ௧ೃ ି ௧బ௧బ ሻ (2) where tோ is the retention time and t଴ is the dead retention time (determined for ura‐ cil). The goodness of fit of the equation (1) to the experimental data was classified accord‐ ing to Jaffe (Jaffe, H. H. A Reexamination of the Hammet Equation. Chem. Rev. 1953, 53, In our RP‐HPLC experiments, the goodness of fit of the equation to the experi‐ mental data are excellent in most ca ses (r > 0.99). The F statistic val ues are, in all cases, […]

Data set [2] deals with HeLa (human cervix carcinoma) cells. Kind of data set: MTT cytotoxicity assay, HeLa. Format: cell-based. The conditions noted are these: 48 h incubation, average (SD) of three experiments, read-out: IC50 HeLa. The protocol: (§1) The cytotoxicity of new derivatives of dicarboximides was tested in HeLa (cervix carcinoma cell line), K562 (myelogenous leukemia cell line), MOLT-4 (Human T-Lymphoid Cell Line), and HUVEC (normal endothelial) cells. First, the viability of cells was determined after 48 h incubation with the screened compounds used at the concentration of 100 μM (data not shown). […] Cells exposed to 1% DMSO (as vehicle) served as the control with 100% survival.
(§2) Human umbilical vein endothelial cells (Life Technologies, Carlsbad, CA, USA) were cultured (according to the manufacturer’s instructions) in Medium 200 containing low serum growth supplement; 1 × 10^4 cells were seeded on each well on a 96-well plate (Nunc, Roskilde, Denmark). The HeLa (human cervix carcinoma), K562, and MOLT-4 (leukemia) cells were cultured in RPMI 1640 medium supplemented with antibiotics and 10% fetal calf serum in a 5% CO2–95% air atmosphere; 7 × 10^3 cells were seeded on each well on a 96-well plate (Nunc). Twenty-four hours later, cells were exposed to the test compounds for additional 48 hours. Stock solutions of test compounds were freshly prepared in DMSO. The final concentrations of the compounds tested in the cell cultures were 2 × 10^−1, 1 × 10^−1, 5 × 10^−2, 1 × 10^−2, 1 × 10^−3, and 1 × 10^−4 mM. The concentration of DMSO in the cell culture medium was 1%. The values of IC50 (the concentration of test compound required to reduce the cell survival fraction to 50% of the control) were calculated from dose–response curves and used as a measure of cellular sensitivity to a given treatment. The cytotoxicity of all compounds was determined by the MTT [3-(4,5-dimethylthiazol-2-yl)-2,5-diphenyltetrazolium bromide; Sigma, St. Louis, MO, USA] assay. Briefly, after 24 or 48 h of incubation with drugs, the cells were treated with the MTT reagent, and incubation was continued for 2 h. MTT-formazan crystals were dissolved in 20% SDS and 50% DMF at pH 4.7, and absorbance was read at 570 and 650 nm on a microplate reader FLUOstar Omega (BMG Labtech, Offenburg, Germany). As a control (100% viability), we used cells grown in the presence of the vehicle (1% DMSO) only.
For orientation: Formazan colour is commonly taken as a measure of viable cells.

The test system of data set [3] is K562 (myelogenous leukemia cell line). Put plainly: MTT cytotoxicity assay, K562. Format: cell-based, human. As to conditions: Homo sapiens, K562, 48 h, 48 h incubation; average (SD) of three experiments; read-out: IC50 K562. The protocol: as §1, §2
For data set [4], the system named is MOLT-4 (Human T-Lymphoid Cell Line). Kind of data set: MTT cytotoxicity assay, MOLT-4. In kind it is cell-based. As to conditions: MOLT-4, 48 h incubation, average (SD) of three experiments, read-out: IC50 MOLT-4. The protocol: as §1, §2
Data set [5] relates to HUVEC (normal endothelial) cells. Put plainly: MTT cytotoxicity assay, HUVEC. Format: cell-based. The conditions noted are these: Homo sapiens, 48 h incubation, average (SD) of three experiments, read-out: IC50 HUVEC. The protocol: as §1, §2

pIC50: −log10 of the molar value. Structures can show the parent of a compound that is named as a salt.

As usually defined, the melting point is the temperature of the solid-liquid transition. The compound `CCCCN(CCCC)CC(O)CN1C(=O)C2C(C1=O)C1(C)C(=O)C2(C)C(c2ccccc2)=C1c1ccccc1` (centres unmarked) (as salt: HCl) [1e, 4-[3-(dibutylamino)-2-hydroxypropyl]-1,7-dimethyl-8,9-diphenyl-4-azatricyclo [5.2.1.0^2,6]dec-8-ene-3,5,10-trione] returned a melting point of 192 to 196 °C.

`CCCCN(CCCC)CC(O)CN1C(=O)C2C(C1=O)C1(c3ccccc3)CC2(c2ccccc2)C(c2ccccc2)=C1c1ccccc1` (centres unmarked) (as salt: HCl) [3e, 4-[3-(dibutylamino)-2-hydroxypropyl]-1,7,8,9-tetraphenyl-4-azatricyclo[5.2.1.0^2,6]dec-8-ene-3,5-dione] displayed a melting point of 237 to 238 °C.

`CC12C(=O)C(C)(C(c3ccccc3)=C1c1ccccc1)C1C(=O)N(CC(O)CN3CCCCC3)C(=O)C12` (centres unmarked) (as salt: HCl) [1f, 4-[2-hydroxy-3-(piperidin-1-yl)propyl]-1,7-dimethyl-8,9-diphenyl-4-azatricyclo[5.2.1.0^2,6]dec-8-ene-3,5,10-trione] displayed a melting point of 170 to 171 °C.

Usually pIC50 stands for the IC50 on a negative log10 scale, so that one unit is a factor of ten. Consider `O=C1C2C(C(=O)N1CC(O)CN1CCOCC1)C1(c3ccccc3)CC2(c2ccccc2)C(c2ccccc2)=C1c1ccccc1` (centres unmarked) [3g, 4-[-2-hydroxy-3-(morpholin-4-yl)propyl]-1,7,8,9-tetraphenyl-4-azatricyclo[5.2.1.0^2,6]dec-8-ene-3,5-dione], for which, in data set [1], the “logkw (Experimental)” value was 6.28. In data set [1], the “logkw (Table S2)” value is reported as 6.2759. Moreover, the pIC50 is 3.92 in data set [2], 4.51 in data set [3], 5.28 in data set [4] and 4.77 in data set [5].

In turn, `CC12C(=O)C(C)(C(c3ccccc3)=C1c1ccccc1)C1C(=O)N(CCN3CCCCC3)C(=O)C12` (centres unmarked) (as salt: HCl) [1i, 4-[2-(piperidin-1-yl)ethy]-1,7-dimethyl-8,9-diphenyl-4-azatricyclo[5.2.1.0^2,6]dec-8-ene-3,5,10-trione] yielded a melting point of 214 to 216 °C.

`CC(C)(C)NCC(O)CN1C(=O)C2C(C1=O)C1(C)C(=O)C2(C)C(c2ccccc2)=C1c1ccccc1` (centres unmarked) [1c, 4-[3-(tert-butylamino)-2-hydroxypropyl]-1,7-dimethyl-8,9-diphenyl-4-azatricyclo [5.2.1.0^2,6]dec-8-ene-3,5,10-trione]: the “logkw (Experimental)” value in data set [1] is listed as 4.91. Moreover, the “logkw (Table S2)” value in data set [1] stood at 4.9077. The negative-log IC50 (pIC50) was 4.59 in data set [2], 4.55 in data set [3], 4.55 in data set [4] and 4.64 in data set [5].

In the case of `CCN(CC)CC(O)CN1C(=O)C2C(C1=O)C1(C)C(=O)C2(C)C(c2ccccc2)=C1c1ccccc1` (centres unmarked) [1d, 4-[3-(diethylamino)-2-hydroxypropyl]-1,7-dimethyl-8,9-diphenyl-4-azatricyclo[5.2.1.0^2,6]dec-8-ene-3,5,10-trione], the “logkw (Experimental)” value in data set [1] is reported as 4.87. Moreover, the “logkw (Table S2)” value in data set [1] is 4.8734. Further, the pIC50 in data set [2] was 4.23; in data set [3], 4.41; in data set [4], 4.43; in data set [5] it was 4.66.

`CCC12C(=O)C(CC)(C(c3ccccc3)=C1c1ccccc1)C1C(=O)N(CC(O)CN3CCCCC3)C(=O)C12` (centres unmarked) (as salt: HCl) [2f, 4-[2-hydroxy-3-(piperidin-1-yl)propyl]-1,7-diethyl-8,9-diphenyl-4-azatricyclo[5.2.1.0^2,6]dec-8-ene-3,5,10-trione] gave a melting point of 190 to 195 °C.

The compound `CCCCN(CCCC)CC(O)CN1C(=O)C2C(C1=O)C1(CC)C(=O)C2(CC)C(c2ccccc2)=C1c1ccccc1` (centres unmarked) (as salt: HCl) [2e, 4-[3-(dibutylamino)-2-hydroxypropyl]-1,7-diethyl-8,9-diphenyl-4-azatricyclo[5.2.1.0^2,6]dec-8-ene-3,5,10-trione] returned a melting point of 92 to 110 °C.

In the case of `CC12C(=O)C(C)(C(c3ccccc3)=C1c1ccccc1)C1C(=O)N(CCN3CCOCC3)C(=O)C12` (centres unmarked) (as salt: HCl) [1j, 4-[2-(morpholin-4-yl)ethy]-1,7-dimethyl-8,9-diphenyl-4-azatricyclo[5.2.1.0^2,6]dec-8-ene-3,5,10-trione], the melting point was in the range of 227 to 228 °C.

For `CCNCC(O)CN1C(=O)C2C(C1=O)C1(CC)C(=O)C2(CC)C(c2ccccc2)=C1c1ccccc1` (centres unmarked) [2b, 4-[3-(ethylamino)-2-hydroxypropyl]-1,7-diethyl-8,9-diphenyl-4-azatricyclo [5.2.1.0^2,6]dec-8-ene-3,5,10-trione], the “logkw (Experimental)” value in data set [1] was 5.08. Moreover, the “logkw (Table S2)” value in data set [1] stood at 5.0846. Further, the negative-log IC50 (pIC50) in data set [2] is 4.59; in data set [3], 5.10; in data set [4], 4.85; in data set [5] it was 5.47.

On to `CCNCC(O)CN1C(=O)C2C(C1=O)C1(C)C(=O)C2(C)C(c2ccccc2)=C1c1ccccc1` (centres unmarked) [1b, 4-[3-(ethylamino)-2-hydroxypropyl]-1,7-dimethyl-8,9-diphenyl-4-azatricyclo [5.2.1.0^2,6]dec-8-ene-3,5,10-trione], for which the “logkw (Experimental)” value in data set [1] is listed as 4.78. The “logkw (Table S2)” value in data set [1] was 4.7844. The pIC50 is 4.52 in data set [2], 4.49 in data set [3], 5.15 in data set [4] and 4.70 in data set [5].

The compound `O=C1C2C(C(=O)N1CC(O)CN1CCCCC1)C1(c3ccccc3)CC2(c2ccccc2)C(c2ccccc2)=C1c1ccccc1` (centres unmarked) (as salt: HCl) [3f, 4-[2-hydroxy-3-(piperidin-1-yl)propyl]-1,7,8,9-tetraphenyl-4-azatricyclo[5.2.1.0^2,6]dec-8-ene-3,5-dione] showed a melting point of 268 to 270 °C.
